The experiment addresses Phosphatidylinositol 4,5-bisphosphate 3-kinase catalytic subunit alpha isoform (Homo sapiens, UniProt P42336). Description: Filter-Binding-Assay: This PI3Kalpha assay provides an IC50 value indicative of the activity of the compounds to inhibit PI3 kinase alpha activity. Inhibition of PI3 kinase would be expected to be indicative of activity in treating conditions of excessive or anomalous cell proliferation, such as cancers. See also J. A. Engelman, Nature Reviews Cancer, 2009, 9, 550-562; A. Carnero, Expert Opin. Investig. Drugs, 2009, 18, 1265-1277 and P. Liu et al., Nature Reviews Drug Discovery, 2009, 8, 627-64.

The source of these data is ChEMBL document CHEMBL3638751, “5-alkynyl-pyridines” (2013).

One may read the IC50 as the midpoint of a concentration-inhibition curve.

Chain of Phosphatidylinositol 4,5-bisphosphate 3-kinase catalytic subunit alpha isoform (P42336 whole entry, canonical isoform): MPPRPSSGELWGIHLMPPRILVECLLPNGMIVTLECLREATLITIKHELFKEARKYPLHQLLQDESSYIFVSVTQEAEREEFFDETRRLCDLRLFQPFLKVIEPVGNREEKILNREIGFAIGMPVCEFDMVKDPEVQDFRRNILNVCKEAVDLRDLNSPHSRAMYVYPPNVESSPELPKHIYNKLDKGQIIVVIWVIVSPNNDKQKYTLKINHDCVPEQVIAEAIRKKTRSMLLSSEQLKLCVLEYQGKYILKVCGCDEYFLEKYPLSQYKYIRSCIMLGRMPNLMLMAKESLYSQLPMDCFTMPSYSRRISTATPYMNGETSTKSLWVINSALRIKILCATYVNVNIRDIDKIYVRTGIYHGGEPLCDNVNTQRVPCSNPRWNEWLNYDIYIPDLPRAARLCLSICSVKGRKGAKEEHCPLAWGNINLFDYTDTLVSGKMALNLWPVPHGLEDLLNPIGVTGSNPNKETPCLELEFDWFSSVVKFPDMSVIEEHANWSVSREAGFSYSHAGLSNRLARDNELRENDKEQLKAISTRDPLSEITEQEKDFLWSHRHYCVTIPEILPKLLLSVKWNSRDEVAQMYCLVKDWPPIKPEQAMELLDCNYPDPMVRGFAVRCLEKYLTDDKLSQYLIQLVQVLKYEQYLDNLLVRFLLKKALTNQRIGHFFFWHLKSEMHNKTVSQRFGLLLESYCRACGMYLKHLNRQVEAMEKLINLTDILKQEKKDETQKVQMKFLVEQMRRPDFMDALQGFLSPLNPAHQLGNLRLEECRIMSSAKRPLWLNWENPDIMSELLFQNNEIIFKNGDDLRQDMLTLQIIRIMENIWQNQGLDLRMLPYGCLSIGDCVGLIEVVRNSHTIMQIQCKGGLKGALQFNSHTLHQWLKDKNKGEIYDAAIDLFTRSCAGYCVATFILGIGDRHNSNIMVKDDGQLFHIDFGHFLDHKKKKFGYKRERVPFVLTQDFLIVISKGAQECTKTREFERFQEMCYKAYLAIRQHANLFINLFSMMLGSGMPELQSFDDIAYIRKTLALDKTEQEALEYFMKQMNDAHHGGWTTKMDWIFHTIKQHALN

For `CCc1ncnc(N2CCC(O)CC2)c1C#Cc1cnc(C)c(NS(C)(=O)=O)c1`, the IC50 amounted to 0.86 nM.
Then `Cc1ncc(C#Cc2c(C)ncnc2N2CCOCC2)cc1NS(=O)(=O)c1cnn(C)c1`, with 0.56 nM.
